Measured values: patent US4228304A, “Novel cyclohexanecarboxylic acid and its derivatives” (Hisamitsu Pharmaceutical Co. Inc., priority 1977, dated 1980)
Structures can show the parent of a compound that is named as a salt.

Tests used:
Emulsification test = type: physicochemical; conditions: 10 ml of 0.25% solution of the salt + 10 ml toluene, 40° C., 15 minutes standing
Procedure: (§1) (6) Emulsification test and determination of surface tention
They were emulsified in the test tube by turning it upside down repeatedly for 30 times at 40° C. and were allowed to stand for 15 minutes. After the standing the separated volume of aqueous layer was measured.

[1] = Determination of surface tension; type: physicochemical; conditions: 0.25% solution of the salt, Ring method, 25° C.
Procedure: as §1
As the structure of the compounds of the present invention is comparatively, similar to Amisoft, HS-11, a sort of Amisoft, which is mixture of 70% of N-stearoyl-L-glutamic acid monosodium salt and 30% of N-palmitoyl-L-glutamic acid monosodium salt was selected for the tests. The surface activity and the surface tension of the said HS-11 and the compounds of the present invention were measured and determined respectively, and those comparative results were shown in Table VII.
(2) Determination of surface tension
The 0.25% solution of the salt of each compound was determined by Ring method at 25° C.

[2] = tested on: Picryl Chloride induced contact dermatitis; assay: Picryl Chloride induced contact dermatitis; type: in vivo, mouse (ddY strain); conditions: Mus musculus, po; for inhibition in vivo at 100 mg/kg: orally, ear swelling 24 hours after second challenge
Procedure: (3) Picryl Chloride induced contact dermatitis
At first 0.1 ml of 7% picryl chloride-ethanol solution was applied to skin of the depilated abdomens (area 2.5×15 mm) of ddY-strain male mice (body weight 20-22 g). After one week each 0.02 ml of 1% picryl chloride-olive oil solution was applied topically to the ears of the mouse. […] After three days 0.1 ml of 7% picryl chloride-ethanol solution was applied again to the depilated abdomens of the mice. After one week, each 0.02 ml of 1% picryl chloride-olive oil solution per ear were applied topically to the bilateral ears, and at same time, the test compounds were administered orally. Immediately before and 24 hours after the second challenge, the thickness of the ears was measured and the swelling was calculated. The percent inhibitions were calculated by the ratio of the each swelling to the control.

Acute toxicity (rat) = conditions: in vivo, po
Procedure: Each test compound suspended in 0.5% tragacanth gum-saline was administered orally, subcutaneously or intraperitoneally to animals ddY strain mouse and Wistar strain rats. The 50% lethal dose and the 95% confidence limit were calculated by Litchfield-Wilcoxon's method from the death of animals in 3 weeks following administration.

[3] = tested on: passive cutaneous anaphylaxis in rat; assay: Homologeous passive cutaneous anaphylaxis in rat; type: in vivo, rat (Wistar strain); conditions: orally, exuded pigment vs control
Procedure: (2) Homologeous passive cutaneous anaphylaxis in rat Each test compound suspended in 0.5% tragacanth gum-distilled water was administered orally to a group of five male Wistar strain rats (body weight 150-200 g). After one hour 0.1 ml of 5% anti-Dinitrophinol conpled Ascaris rat IgE serum-physiological sodium chloride solution was injected intradermally to dorsum of the rat. […] The animals were sacrificed by decapitation 30 minutes after the injection. Thereafter the skin of the animals were removed and the amount of the pigment exuded into the inflamed skin was determined. The percent inhibitions were calculated by the ratio of the amounts of exuded pigments to the control.

[4] = tested on: lung fragment of guinea pig; assay: Mediator (histamine) release on lung fragment of guinea pig; type: cell-based, guinea pig (Hartley strain); conditions: 10^-4 g/ml
Procedure: (4) Mediator release on lung fragment of guinea pig.
A group of Hartley strain male guinea pigs (body weight 250-300 g) were administered intraperitoneally anti-BPO-BGG IgE serum. The animals were sacrificed by decapitation, and those sensitized lungs were isolated for use. […] Following 10 minute incubation, the amount of the released histamine were determined by bioassay.

[5] = tested on: rat adjuvant polyarthritis; assay: Effect on rat adjuvant polyarthritis; type: in vivo, rat (Sprague Dawley strain); conditions: oral daily: Compound No. 1 200 mg/kg, Ibuprofen 50 mg/kg, Prednisolone 0.5 mg/kg
Procedure: (5) Effect on rat adjuvant polyarthritis
A group of eight to ten male Sprague Dawley strain rats (body weight 240-280 g) were used. 0.1 ml of Complete Freuind's adjuvant (CFA, Mycobacterium butyricum, 100 mg/10 cc) was injected intradermally to the right hind sole.

CCC(NC(=O)[C@]1(C)CC[C@H](CCCC(C)C)CC1)C(=O)O (stereo partly drawn) [Compound No. 12 (potassium salt)]
Separated volume of aqueous layer (Emulsification test): 7.3 mL
Surface tension γ [1]: 44.5 dyn/cm

CCCCC(NC(=O)[C@]1(C)CC[C@H](CCCC(C)C)CC1)C(=O)O (stereo partly drawn) [compound 11]
inhibition in vivo at 100 mg/kg [2]: 37%

CC[C@H](C)[C@H](NC(=O)[C@]1(C)CC[C@H](CCCC(C)C)CC1)C(=O)O [compound 8]
inhibition in vivo at 100 mg/kg [2]: 41%

CC(C)CCC[C@H]1CC[C@](C)(C(=O)NCC(=O)O)CC1 [compound 21, N-(trans-4-isohexyl-1-methylcyclohexanecarbonyl)-glycine]
inhibition in vivo at 100 mg/kg [2]: 53%

CC(C)CCC[C@H]1CC[C@H](C(=O)NCCCCCC(=O)O)CC1 [Compound No. 42 (sodium salt)]
Separated volume of aqueous layer (Emulsification test): 9.5 mL
Surface tension γ [1]: 38.8 dyn/cm

CC(C)CCC[C@H]1CC[C@@](C)(C(=O)NCCCCCC(=O)O)CC1 [compound 3, N-(cis-4-isohexyl-1-methylcyclohexanecarbonyl)-ε-aminocaproic acid]
inhibition in vivo at 100 mg/kg [2]: 45%

CC(C)CCC[C@H]1CC[C@@](C)(C(=O)NCC(=O)O)CC1 [Compound No. 2 (potassium salt)]
Separated volume of aqueous layer (Emulsification test): 9.5 mL
Surface tension γ [1]: 39.5 dyn/cm

CC(C)CCC[C@H]1CC[C@@](C)(C(=O)NCC(=O)O)CC1 [Compound No. 2, N-(cis-4-isohexyl-1-methylcyclohexanecarbonyl)-glycine]
LD50 at 504 h (Acute toxicity (rat); female rat): ~10300 mg/kg
LD50 at 504 h (Acute toxicity (rat); male rat): ~11000 mg/kg
Inhibition ([3]; 100 mg/kg): 46%
inhibition in vivo at 100 mg/kg [2]: 41%
inhibition (released histamine) [4]: 73.0%

CC(C)CCC[C@H]1CC[C@](C)(C(=O)O)CC1 [compound 20, trans-4-isohexyl-1-methylcyclohexanecarboxylic acid]
inhibition in vivo at 100 mg/kg [2]: 44%

CC(C)CCC[C@H]1CC[C@@](C)(C(=O)N[C@@H](CS)C(=O)O)CC1 [compound 18]
inhibition in vivo at 100 mg/kg [2]: 27%

CCC(NC(=O)[C@]1(C)CC[C@H](CCCC(C)C)CC1)C(=O)O (stereo partly drawn) [Compound No. 12]
inhibition in vivo at 100 mg/kg [2]: 27%

CC(C)CCC[C@H]1CC[C@@](C)(C(=O)N[C@@H](CCC(N)=O)C(=O)O)CC1 [compound 14]
inhibition in vivo at 100 mg/kg [2]: 7%

CSCC[C@H](NC(=O)[C@]1(C)CC[C@H](CCCC(C)C)CC1)C(=O)O [Compound No. 17 (triethanolamine salt)]
Separated volume of aqueous layer (Emulsification test): 9.5 mL
Surface tension γ [1]: 42.3 dyn/cm

CC(C)Cc1ccc(C(C)C(=O)O)cc1 (stereo not drawn) [Ibuprofen]
Swelling percent of left hind paw (non-treatment of CFA) ([5]; day 0): -1.7±1.3%
Swelling percent of right hind paw (treatment of CFA) ([5]; day 0): 118.6± 5.7%
Swelling percent of left hind paw (non-treatment of CFA) ([5]; day 1): -2.4±1.0%
Swelling percent of right hind paw (treatment of CFA) ([5]; day 1): 98.1± 6.1%
Swelling percent of left hind paw (non-treatment of CFA) ([5]; day 4): -2.3±1.5%
Swelling percent of right hind paw (treatment of CFA) ([5]; day 4): 204.7±11.6%
Swelling percent of left hind paw (non-treatment of CFA) ([5]; day 7): 1.5±1.8%
Swelling percent of right hind paw (treatment of CFA) ([5]; day 7): 181.7±14.8%
Swelling percent of left hind paw (non-treatment of CFA) ([5]; day 10): 7.4±1.8%
Swelling percent of left hind paw (non-treatment of CFA) ([5]; day 14): 12.5±1.5%
Swelling percent of left hind paw (non-treatment of CFA) ([5]; day 17): 8.5±1.5%
Swelling percent of left hind paw (non-treatment of CFA) ([5]; day 21): 8.5±2.0%
Swelling percent of right hind paw (treatment of CFA) ([5]; day 21): 138.5±12.6%

CC(C)CCC[C@H]1CC[C@@](C)(C(=O)N[C@@H](CCC(=O)O)C(=O)O)CC1 [Compound No. 15 (monosodium salt)]
Separated volume of aqueous layer (Emulsification test): 9.3 mL
Surface tension γ [1]: 42.3 dyn/cm

CC(C)CCC[C@H]1CC[C@@](C)(C(=O)NCCCC(=O)O)CC1 [compound 13]
inhibition in vivo at 100 mg/kg [2]: 40%

CC(C)CCC[C@H]1CC[C@@](C)(C(=O)N[C@@H](C)C(=O)O)CC1 [compound 5]
inhibition in vivo at 100 mg/kg [2]: 32%

CSCC[C@H](NC(=O)[C@]1(C)CC[C@H](CCCC(C)C)CC1)C(=O)O [Compound No. 17]
inhibition in vivo at 100 mg/kg [2]: 50%

CC(C)CCC[C@H]1CC[C@@](C)(C(=O)NCCC(=O)O)CC1 [compound 6, N-(cis-4-isohexyl-1-methylcyclohexanecarbonyl)-β-alanine]
inhibition in vivo at 100 mg/kg [2]: 10%

CC1(C)[C@@H](O[C@H]2O[C@H](C(=O)O)[C@@H](O)[C@H](O)[C@H]2O[C@@H]2O[C@H](C(=O)O)[C@@H](O)[C@H](O)[C@H]2O)CC[C@]2(C)[C@H]3C(=O)C=C4[C@@H]5C[C@@](C)(C(=O)O)CC[C@]5(C)CC[C@@]4(C)[C@]3(C)CC[C@@H]12 [Glycyrrhizin, reference compound]
Inhibition ([3]; 100 mg/kg): 22%
inhibition (released histamine) [4]: 8.0%

CCCC(NC(=O)[C@]1(C)CC[C@H](CCCC(C)C)CC1)C(=O)O (stereo partly drawn) [compound 9]
inhibition in vivo at 100 mg/kg [2]: 47%

C[C@]12C=CC(=O)C=C1CC[C@@H]1[C@@H]2[C@@H](O)C[C@@]2(C)[C@H]1CC[C@]2(O)C(=O)CO [Prednisolone]
Inhibition ([3]; 5 mg/kg): 42%
inhibition in vivo at 5 mg/kg ([2]; 24 h, read-out: Inhibition): 32%
inhibition (released histamine) [4]: 4.0%
Swelling percent of left hind paw (non-treatment of CFA) ([5]; day 0): -1.1±1.0%
Swelling percent of right hind paw (treatment of CFA) ([5]; day 0): 118.4± 6.0%
Swelling percent of left hind paw (non-treatment of CFA) ([5]; day 1): -1.0±1.0%
Swelling percent of right hind paw (treatment of CFA) ([5]; day 1): 97.3± 6.5%
Swelling percent of left hind paw (non-treatment of CFA) ([5]; day 4): -1.7±1.1%
Swelling percent of right hind paw (treatment of CFA) ([5]; day 4): 232.7±17.8%
Swelling percent of left hind paw (non-treatment of CFA) ([5]; day 7): 5.7±1.9%
Swelling percent of right hind paw (treatment of CFA) ([5]; day 7): 200.3±22.5%
Swelling percent of left hind paw (non-treatment of CFA) ([5]; day 10): 4.5±2.9%
Swelling percent of right hind paw (treatment of CFA) ([5]; day 10): 167.2±19.0%
Swelling percent of left hind paw (non-treatment of CFA) ([5]; day 14): 12.5±2.4%
Swelling percent of right hind paw (treatment of CFA) ([5]; day 14): 175.0±18.6%
Swelling percent of left hind paw (non-treatment of CFA) ([5]; day 17): 9.8±1.4%
Swelling percent of right hind paw (treatment of CFA) ([5]; day 17): 174.2±18.6%
Swelling percent of left hind paw (non-treatment of CFA) ([5]; day 21): 7.1±1.5%
Swelling percent of right hind paw (treatment of CFA) ([5]; day 21): 173.0±23.7%

CC(C)CCC[C@H]1CC[C@@](C)(C(=O)N[C@H](C(=O)O)C(C)C)CC1 [compound 10]
inhibition in vivo at 100 mg/kg [2]: 9%
